# Data reported in US8207216B2, “Benzofuran-3-yl(indol-3-yl) maleimides as potent GSK3 inhibitors” (The Board of Trustees of the University of Illinois, priority 2006, dated 2012).
# Assays:
# [1] = target: T1, recombinant human His6-GSK-3β (Homo sapiens, UniProt P49841); experiment: GSK-3β kinase assay, [γ32P] transfer to primed glycogen synthase peptide; format: biochemical; settings: for IC50: 10 μM ATP, 10 μM pGSM peptide, 30 minutes at 30° C., read-out: IC50 (nM), GSK-3β inhibition;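 for all read-outs here: phosphate incorporation quantified by liquid scintillation counting of the filters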
# T1 construct: His6; purchased EMD Biosciences
# MIAPaCa-2 = experiment: Antiproliferation MTS assay, pancreatic cancer cells; format: cell-based; settings: Homo sapiens, MIA PaCa-2; 72 hrs, MTS
# CDK-2/cyclinE = CDK-2/cyclinE (Homo sapiens, UniProt P24941); experiment: CDK-2/CyclinE inhibition (Reaction Biology); format: biochemical; settings: for IC50 Ratio CDK-2/cyclinE GSK-3β: selectivity ratio; for IC50: tested at Reaction Biology, Inc.
# T1 sequence (P49841 whole entry): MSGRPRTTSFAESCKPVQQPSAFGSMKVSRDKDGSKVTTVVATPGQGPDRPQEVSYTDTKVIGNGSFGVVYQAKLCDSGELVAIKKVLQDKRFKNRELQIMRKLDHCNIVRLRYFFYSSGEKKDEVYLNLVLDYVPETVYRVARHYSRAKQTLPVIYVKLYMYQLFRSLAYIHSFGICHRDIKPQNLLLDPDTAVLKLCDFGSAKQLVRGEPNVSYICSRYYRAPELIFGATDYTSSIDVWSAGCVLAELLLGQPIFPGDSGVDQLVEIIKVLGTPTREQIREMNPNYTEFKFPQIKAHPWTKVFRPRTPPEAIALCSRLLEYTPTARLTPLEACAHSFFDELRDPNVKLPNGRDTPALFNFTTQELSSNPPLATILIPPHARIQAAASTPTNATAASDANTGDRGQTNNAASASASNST
Compound,IC50 [1],further results
"COc1cccc2c(C3=C(c4cn(C)c5cc(Br)c(F)cc45)C(=O)NC3=O)coc12 [Compound 11, 3-(6-Bromo-5-fluoro-1-methyl-1H-indol-3-yl)-4-(7-methoxy-benzofuran-3-yl)-pyrrole-2,5-dione]",59.7 ± 6.57 nM,
"Cn1cc(C2=C(c3coc4ccc(F)cc34)C(=O)NC2=O)c2ccc(OCc3ccccc3)cc21 [Compound 48, 3-(6-Benzyloxy-1-methyl-1H-indol-3-yl)-4-(5-fluoro-benzofuran-3-yl)-pyrrole-2,5-dione]",160 ± 35 nM,IC50 (MIAPaCa-2): 80000 nM
"Cn1cc(C2=C(c3coc4ccc(F)cc34)C(=O)NC2=O)c2cc(Cl)ccc21 [Compound 27, 3-(5-Chloro-1-methyl-1H-indol-3-yl)-4-(5-fluoro-benzofuran-3-yl)-pyrrole-2,5-dione]",34.5 ± 3.8 nM,IC50 Ratio CDK-2/cyclinE GSK-3β (CDK-2/cyclinE): 2.6; IC50 (CDK-2/cyclinE): 1840 nM
"Cn1cc(C2=C(c3coc4ccccc34)C(=O)NC2=O)c2cc(C3CC3)ccc21 [Compound 37, 3-Benzofuran-3-yl-4-(5-cyclopropyl-1-methyl-1H-indol-3-yl)-pyrrole-2,5-dione]",235 ± 15 nM,IC50 (CDK-2/cyclinE): 32000 nM
"Cn1cc(C2=C(c3coc4ccc(Br)cc34)C(=O)NC2=O)c2ccccc21 [Compound 3, 3-(5-Bromo-benzofuran-3-yl)-4-(1-methyl-1H-indol-3-yl)-pyrrole-2,5-dione]",550 ± 20 nM,
"C=CCOc1ccc2c(C3=C(c4cn(C)c5ccc(Br)cc45)C(=O)NC3=O)coc2c1 [Compound 24, 3-(6-Allyloxy-benzofuran-3-yl)-4-(5-bromo-1-methyl-1H-indol-3-yl)-pyrrole-2,5-dione]",48.3 ± 7 nM,
"Cn1cc(C2=C(c3coc4cc(O)ccc34)C(=O)NC2=O)c2cc(F)ccc21 [Compound 9, 3-(5-Fluoro-1-methyl-1H-indol-3-yl)-4-(6-hydroxy-benzofuran-3-yl)-pyrrole-2,5-dione]",3.5 ± 1.3 nM,
"COc1ccc(COc2ccc3c(C4=C(c5cn(C)c6ccc(Br)cc56)C(=O)NC4=O)coc3c2)cc1 [Compound 25, 3-(5-Bromo-1-methyl-1H-indol-3-yl)-4-[6-(4-methoxy-benzyloxy)-benzofuran-3-yl]-pyrrole-2,5-dione]",335 ± 37 nM,
"Cn1cc(C2=C(c3coc4cc(CO)ccc34)C(=O)NC2=O)c2cc(C#N)ccc21 [Compound 34, 3-[4-(6-Hydroxymethyl-benzofuran-3-yl)-2,5-dioxo-2,5-dihydro-1H-pyrrol-3-yl]-1-methyl-1H-indole-5-carbonitrile]",13.2 ± 3.2 nM,
"COc1cccc2c(C3=C(c4cn(C)c5ccccc45)C(=O)NC3=O)coc12 [Compound 4, 3-(7-Methoxy-benzofuran-3-yl)-4-(1-methyl-1H-indol-3-yl)-pyrrole-2,5-dione]",180 ± 15 nM,
"Cn1cc(C2=C(c3coc4ccccc34)C(=O)NC2=O)c2cccc(OCc3ccccc3)c21 [Compound 54, 3-Benzofuran-3-yl-4-(7-benzyloxy-1-methyl-1H-indol-3-yl)-pyrrole-2,5-dione]",220 ± 45 nM,
"Cn1cc(C2=C(c3coc4ccccc34)C(=O)NC2=O)c2cc(OCc3ccccc3)ccc21 [Compound 31, 3-Benzofuran-3-yl-4-(5-benzyloxy-1-methyl-1H-indol-3-yl)-pyrrole-2,5-dione]",500 ± 60 nM,
"COc1cccc2c(C3=C(c4cn(C)c5cc(-c6ccc(Cl)cc6)c(F)cc45)C(=O)NC3=O)coc12 [Compound 18, 3-[6-(4-Chlorophenyl)-5-fluoro-1-methyl-1H-indol-3-yl]-4-(7-methoxy-benzofuran-3-yl)-pyrrole-2,5-dione]",7160 ± 1200 nM,
"COc1cccc2c(C3=C(c4cn(C)c5c(Br)cc(Br)cc45)C(=O)NC3=O)coc12 [Compound 26, 3-(5,7-Dibromo-1-methyl-1H-indol-3-yl)-4-(7-methoxy-benzofuran-3-yl)-pyrrole-2,5-dione]",88.7 ± 5.6 nM,
"Cn1cc(C2=C(c3coc4ccccc34)C(=O)NC2=O)c2cccc(O)c21 [Compound 53, 3-Benzofuran-3-yl-4-(7-hydroxy-1-methyl-1H-indol-3-yl)-pyrrole-2,5-dione]",55 ± 8 nM,
"O=C1NC(=O)C(c2cn(CCCO)c3ccc(OCc4ccccc4)cc23)=C1c1coc2ccccc12 [Compound 32, 3-Benzofuran-3-yl-4-[5-benzyloxy-1-(3-hydroxy-propyl)-1H-indol-3-yl]-pyrrole-2,5-dione]",220 ± 30 nM,
"O=C1NC(=O)C(c2coc3ccccc23)=C1c1c[nH]c2ccc(OCc3ccccc3)cc12 [Compound 44, 3-Benzofuran-3-yl-4-(5-benzyloxy-1H-indol-3-yl)-pyrrole-2,5-dione]",1650 ± 200 nM,IC50 (MIAPaCa-2): 21000 nM
Cn1cc(C2=C(c3coc4ccccc34)C(=O)NC2=O)c2cccc(CO)c21 [Compound 82],,IC50 Ratio CDK-2/cyclinE GSK-3β (CDK-2/cyclinE): 27; IC50 (CDK-2/cyclinE): 149 nM

Compound,IC50 [1],further results
Cn1cc(C2=C(c3coc4cc(CO)ccc34)C(=O)NC2=O)c2cccc(CO)c21 [Compound 83],,IC50 Ratio CDK-2/cyclinE GSK-3β (CDK-2/cyclinE): 5; IC50 (CDK-2/cyclinE): 27 nM
"Cn1cc(C2=C(c3coc4ccc(F)cc34)C(=O)NC2=O)c2cc(I)ccc21 [Compound 29, 3-(5-Fluoro-benzofuran-3-yl)-4-(5-iodo-1-methyl-1H-indol-3-yl)-pyrrole-2,5-dione]",180 ± 11 nM,
"COc1cc2c(C3=C(c4coc5ccccc45)C(=O)NC3=O)cn(C)c2cc1I [Compound 43, 3-Benzofuran-3-yl-4-(6-iodo-5-methoxy-1-methyl-1H-indol-3-yl)-pyrrole-2,5-dione]",223 ± 22 nM,
"CN1C(=O)C(c2coc3cc(CO)ccc23)=C(c2cn(C)c3ccc(F)cc23)C1=O [Compound 56, 3-(5-Fluoro-1-methyl-1H-indol-3-yl)-4-(6-hydroxymethyl-benzofuran-3-yl)-1-methyl-pyrrole-2,5-dione]",0.35 ± 0.06 nM,
CCOC(=O)CCc1cccc2c(C3=C(c4coc5ccccc45)C(=O)NC3=O)cn(C)c12 [Compound 93],10.2 ± 3.6 nM,
"Cn1cc(C2=C(c3coc4ccccc34)C(=O)NC2=O)c2cc(N3CCOCC3)ccc21 [Compound 39, 3-Benzofuran-3-yl-4-(1-methyl-5-morpholin-4-yl-1H-indol-3-yl)-pyrrole-2,5-dione]",1300 ± 146 nM,
"Cn1cc(C2=C(c3coc4ccccc34)C(=O)NC2=O)c2cc(O)ccc21 [Compound 30, 3-Benzofuran-3-yl-4-(5-hydroxy-1-methyl-1H-indol-3-yl)-pyrrole-2,5-dione]",690 ± 100 nM,
"Cn1cc(C2=C(c3coc4ccccc34)C(=O)NC2=O)c2ccc(OCc3ccccc3)cc21 [Compound 47, 3-Benzofuran-3-yl-4-(6-benzyloxy-1-methyl-1H-indol-3-yl)-pyrrole-2,5-dione]",900 ± 80 nM,
"Cn1cc(C2=C(c3coc4cc(CO)ccc34)C(=O)NC2=O)c2cc(F)ccc21 [Compound 7, 3-(5-Fluoro-1-methyl-1H-indol-3-yl)-4-(6-hydroxymethyl-benzofuran-3-yl)-pyrrole-2,5-dione]",0.35 ± 0.06 nM,IC50 (CDK-2/cyclinE): 237 nM
"Cn1cc(C2=C(c3coc4cc(CO)ccc34)C(=O)NC2=O)c2cccc(CO)c21 [Compound 51, 3-(6-Hydroxymethyl-benzofuran-3-yl)-4-(7-hydroxymethyl-1-methyl-1H-indol-3-yl)-pyrrole-2,5-dione]",5.1 ± 1.2 nM,
"Cn1cc(C2=C(c3coc4ccccc34)C(=O)NC2=O)c2cc(F)ccc21 [Compound 6, 3-Benzofuran-3-yl-4-(5-fluoro-1-methyl-1H-indol-3-yl)-pyrrole-2,5-dione]",26 ± 6 nM,
"Cn1cc(C2=C(c3coc4ccccc34)C(=O)NC2=O)c2cccc(CO)c21 [Compound 50, 3-Benzofuran-3-yl-4-(7-hydroxymethyl-1-methyl-1H-indol-3-yl)-pyrrole-2,5-dione]",5.4 ± 0.7 nM,
"COc1ccc2c(c1)c(C1=C(c3coc4ccccc34)C(=O)NC1=O)cn2C [Compound 41, 3-Benzofuran-3-yl-4-(5-methoxy-1-methyl-1H-indol-3-yl)-pyrrole-2,5-dione]",125 ± 35 nM,
COCc1cccc2c(C3=C(c4coc5cc(CO)ccc45)C(=O)NC3=O)cn(C)c12 [Compound 92],0.73 ± 0.1 nM,
"3-(6-Chloro-5-methoxy-1-methyl-1H-indol-3-yl)-4-(6-methoxy-benzofuran-3-yl)-pyrrole-2,5-dione [Compound 14]",870 ± 160 nM,Ki [1]: 580 nM
"O=C1NC(=O)C(c2coc3ccc(F)cc23)=C1c1c[nH]c2ccccc12 [Compound 2, 3-(5-Fluoro-benzofuran-3-yl)-4-(1H-indol-3-yl)-pyrrole-2,5-dione]",670 ± 40 nM,
"O=C1NC(=O)C(c2coc3ccccc23)=C1c1c[nH]c2ccc(F)cc12 [Compound 5, 3-Benzofuran-3-yl-4-(5-fluoro-1H-indol-3-yl)-pyrrole-2,5-dione]",360 ± 40 nM,IC50 (MIAPaCa-2): 21000 nM
Cn1cc(C2=C(c3coc4ccccc34)C(=O)NC2=O)c2cccc(CCC(=O)O)c21 [Compound 86],1.2 ± 0.2 nM,
